Data taken from US20140094366A1, “SYNERGISTIC WEED CONTROL FROM APPLICATIONS OF AMINOCYCLOPYRACHLOR AND FLUROXYPYR” (Dow AgroSciences LLC, priority 2012, published 2014).

Key:
Assay in all cases: Field trial, post-emergence foliar weed control
Type in all cases: in vivo
[1] = tested on: buckhorn plantain (Plantago lanceolata, PLALA); conditions: 27 DAYS, 18 g ae/ha, alone
Source text: (§1) The (a) aminocyclopyrachloror an agriculturally acceptable salt or ester thereof is mixed with or applied in combination with (b) fluoroxypyr or an agriculturally acceptable salt or ester thereof in an amount sufficient to induce a synergistic herbicidal effect. […] As described in the Herbicide Handbook of the Weed Science Society of America, Ninth Edition, 2007, p. 429, “‘synergism’ [is] an interaction of two or more factors such that the effect when combined is greater than the predicted effect based on the response to each factor applied separately.” Synergistic in the herbicide context can mean that the use of (a) and (b) as defined above results in an increased weed control effect compared to the weed control effects that are possible with the use of (a) or (b) alone. In some embodiments, the damage or injury to the undesired vegetation caused by the compositions and methods disclosed herein is evaluated using a scale from 0% to 100%, when compared with the untreated control vegetation, wherein 0% indicates no damage to the undesired vegetation and 100% indicates complete destruction of the undesired vegetation. […] 22 (1967)
(§2) Field trials were conducted with applications made to established grassland with naturally occurring weed populations, or applications were made to bare ground with naturally occurring weed populations. The target plants were treated with postemergence foliar applications after they had reached at least 3-4 leaves or at least 2-5 inches in height. All treatments were applied using a randomized complete block trial design, with 3-4 replications per treatment.
(§3) Treatments consisted of aminocyclopyrachlor in acid form and fluoroxypyr-meptyl, each in water and applied alone or in combination. Spray solutions were prepared using an appropriate amount of dilution to form a 2 liter (L) aqueous spray solution with active ingredients in single and two way combinations. Formulated compounds were applied to the plant material with a backpack sprayer equipped with 8003 or Turbojet nozzles calibrated to deliver 187 liters per hectare (L/ha) to 400 L/ha at a spray height of 18-20 inches (43-50 centimeters (cm)) above average plant canopy or ground.
(§4) The treated plants were shepherd's purse (Capsella bursa-pastoris, CAPBP), common fiddleneck (Amsinckia menziesii, AMSIN), wild oat (Avena fatua, AVEFA), cat's ear dandelion (Hypochaeris radicata, HRYRA), yellow star thistle (Centaurea solstitialis, CENSO), common guava (Psidium guajava, PSIGU), buckhorn plantain (Plantago lanceolata, PLALA), and calvary clover (Medicago arabica, MEDAB). The treated plots and control plots were rated blind at various intervals after application. Ratings were based on a scale of 0-100%, as discussed above, wherein 0% indicates no damage to the undesired vegetation and 100% indicates complete destruction of the undesired vegetation.
(§5) Colby's equation was used to determine the herbicidal effects expected from the mixtures, as described above. The results were measured at 11 days, 17 days, 24 days, 27 days, 37 days, 70 days, 76 days, and 88 days after the first application of the compositions. […] The herbicide tank mix combinations tested, application rates and ratios employed, plant species tested, and results are given below.

[2] = tested on: cat's ear dandelion (Hypochaeris radicata, HRYRA); conditions: alone
Source text: as §1, §2, §3, §4, §5

[3] = tested on: common fiddleneck (Amsinckia menziesii, AMSIN); conditions: alone; for Aminocyclopyrachlor Mean % weed control: 18 g ae/ha; for Fluroxypyr-meptyl Mean % weed control: 70 g ae/ha
Source text: as §1, §2, §3, §4, §5

[4] = tested on: calvary clover (Medicago arabica, MEDAB); conditions: 27 DAYS, alone
Source text: as §1, §2, §3, §4, §5

[5] = tested on: shepherd's purse (Capsella bursa-pastoris, CAPBP); conditions: alone
Source text: as §1, §2, §3, §4, §5

[6] = tested on: wild oat (Avena fatua, AVEFA); conditions: 11 DAYS, alone
Source text: as §1, §2, §3, §4, §5

[7] = tested on: yellow star thistle (Centaurea solstitialis, CENSO); conditions: 37 DAYS, alone
Source text: as §1, §2, §3, §4, §5

[8] = tested on: common guava (Psidium guajava, PSIGU); conditions: alone
Source text: as §1, §2, §3, §4, §5

Nc1nc(C2CC2)nc(C(=O)O)c1Cl [Aminocyclopyrachlor, 6-amino-5-chloro-2-cyclopropylpyrimidine-4-carboxylic acid]
Aminocyclopyrachlor Mean % weed control [1]: 22.5%
Aminocyclopyrachlor Mean % weed control ([2]; 11 DAYS, 35 g ae/ha): 1.75%
Aminocyclopyrachlor Mean % weed control ([2]; 37 DAYS, 18 g ae/ha): 28.75%
Aminocyclopyrachlor Mean % weed control ([2]; 70 DAYS, 18 g ae/ha): 36.25%
Aminocyclopyrachlor Mean % weed control ([3]; 17 DAYS): 0%
Aminocyclopyrachlor Mean % weed control ([3]; 24 DAYS): 0%
Aminocyclopyrachlor Mean % weed control ([4]; 18 g ae/ha): 27.5%
Aminocyclopyrachlor Mean % weed control ([4]; 35 g ae/ha): 47.5%
Aminocyclopyrachlor Mean % weed control ([5]; 17 DAYS, 18 g ae/ha): 23.33%
Aminocyclopyrachlor Mean % weed control ([5]; 17 DAYS, 35 g ae/ha): 50%
Aminocyclopyrachlor Mean % weed control ([5]; 24 DAYS, 35 g ae/ha): 50%
Aminocyclopyrachlor Mean % weed control ([6]; 35 g ae/ha): 0%
Aminocyclopyrachlor Mean % weed control ([7]; 18 g ae/ha): 57.5%
Aminocyclopyrachlor Mean % weed control ([8]; 76 DAYS, 50 g ae/ha): 7.5%
Aminocyclopyrachlor Mean % weed control ([8]; 76 DAYS, 150 g ae/ha): 48.3%
Aminocyclopyrachlor Mean % weed control ([8]; 88 DAYS, 50 g ae/ha): 7.5%
Aminocyclopyrachlor Mean % weed control ([8]; 88 DAYS, 150 g ae/ha): 57.5%

CCCCCCC(C)OC(=O)COc1nc(F)c(Cl)c(N)c1Cl (stereo not drawn) [Fluroxypyr-meptyl]
Fluroxypyr-meptyl Mean % weed control [1]: 10%
Fluroxypyr-meptyl Mean % weed control ([2]; 11 DAYS, 70 g ae/ha): 0%
Fluroxypyr-meptyl Mean % weed control ([2]; 37 DAYS, 18 g ae/ha): 0.5%
Fluroxypyr-meptyl Mean % weed control ([2]; 37 DAYS, 70 g ae/ha): 3%
Fluroxypyr-meptyl Mean % weed control ([2]; 70 DAYS, 70 g ae/ha): 1.75%
Fluroxypyr-meptyl Mean % weed control ([3]; 17 DAYS): 3.33%
Fluroxypyr-meptyl Mean % weed control ([3]; 24 DAYS): 3.33%
Fluroxypyr-meptyl Mean % weed control ([4]; 18 g ae/ha): 11.25%
Fluroxypyr-meptyl Mean % weed control ([4]; 35 g ae/ha): 7.5%
Fluroxypyr-meptyl Mean % weed control ([4]; 70 g ae/ha): 47.5%
Fluroxypyr-meptyl Mean % weed control ([5]; 17 DAYS, 35 g ae/ha): 6.67%
Fluroxypyr-meptyl Mean % weed control ([5]; 17 DAYS, 70 g ae/ha): 13.33%
Fluroxypyr-meptyl Mean % weed control ([5]; 24 DAYS, 70 g ae/ha): 8.33%
Fluroxypyr-meptyl Mean % weed control ([6]; 70 g ae/ha): 1%
Fluroxypyr-meptyl Mean % weed control ([7]; 70 g ae/ha): 22.5%
Fluroxypyr-meptyl Mean % weed control ([8]; 76 DAYS, 80 g ae/ha): 4.8%
Fluroxypyr-meptyl Mean % weed control ([8]; 76 DAYS, 240 g ae/ha): 16.3%
Fluroxypyr-meptyl Mean % weed control ([8]; 88 DAYS, 80 g ae/ha): 4.8%
Fluroxypyr-meptyl Mean % weed control ([8]; 88 DAYS, 240 g ae/ha): 16.3%
